Biological target: T1, CARF (hCARF; collaborator of ARF) (Homo sapiens, UniProt Q9NXV6)
T1 construct: gene CDKN2AIP; full length; site Cys-516 in C-terminal fragment C1
T1 sequence (Q9NXV6 2-580): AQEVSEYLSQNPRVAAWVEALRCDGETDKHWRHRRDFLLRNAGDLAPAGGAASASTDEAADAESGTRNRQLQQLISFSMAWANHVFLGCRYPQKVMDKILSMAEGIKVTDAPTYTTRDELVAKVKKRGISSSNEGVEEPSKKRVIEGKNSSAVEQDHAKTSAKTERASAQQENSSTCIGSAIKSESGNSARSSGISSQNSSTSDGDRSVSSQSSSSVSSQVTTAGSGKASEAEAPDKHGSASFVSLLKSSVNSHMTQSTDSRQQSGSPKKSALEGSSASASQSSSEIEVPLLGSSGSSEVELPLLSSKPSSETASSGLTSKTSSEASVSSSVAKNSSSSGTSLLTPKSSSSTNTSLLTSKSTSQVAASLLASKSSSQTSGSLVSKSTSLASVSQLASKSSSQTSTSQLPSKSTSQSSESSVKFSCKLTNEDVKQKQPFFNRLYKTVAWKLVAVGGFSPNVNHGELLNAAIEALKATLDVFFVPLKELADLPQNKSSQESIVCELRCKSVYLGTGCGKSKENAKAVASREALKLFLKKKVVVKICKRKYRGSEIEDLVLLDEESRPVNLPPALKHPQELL
Assay: competition with S-614 for bead-bound His6-hCARF
Assay type: binding
Details: 15 uM NC043 against 7.5 uM S-614, 1 h, 4 C; covalent (Cys-516)

## C=C1C(=O)[C@]23CC[C@H]1C[C@H]2[C@@]12CCC[C@@](C)(COC1=O)[C@H]2C[C@H]3O [NC043]
  competition with S-614 for bead-bound His6-hCARF: S-614 directly binds to CARF, which could be competed off by NC043

From publication PMC5387711 (Cell Discovery, 2017)
